The source made the active and inactive calls. The rule behind the calls is not given here. Some results are limits rather than exact numbers.

One assay deals with Streptococcus pyogenes. As to the kind of experiment: Antibacterial activity against Streptococcus pyogenes DSM 20565-0316-001 incubated for 20 hrs by MTT based double dilution method. The class given is functional, organism-based.
Another assay concerns Staphylococcus aureus. The experiment in a line: Antibacterial activity against Staphylococcus aureus DSM 20231 incubated for 20 hrs by MTT based double dilution method. The format is functional, organism-based.
The subject of the next assay is SK-MEL-28. The experiment in a line: Cytotoxicity against human SK-MEL-28 cells assessed as cell growth inhibition incubated for 68 hrs by MTT assay. The conditions noted are these: SK-MEL-28, 68 h. The class given is functional, cell-based. In general terms: Tetrazolium dyes change colour on reduction, which living cells bring about.
The subject of a further assay is HeLa. The experiment in a line: Cytotoxicity against human HeLa cells assessed as cell growth inhibition incubated for 68 hrs by MTT assay. The format is functional, cell-based.
The next assay relates to PC-3. The experiment in a line: Cytotoxicity against human PC-3 cells assessed as cell growth inhibition incubated for 68 hrs by MTT assay. The format is functional, cell-based. The settings on record: PC-3, 68 h.
In another assay the test system is HepG2. As to the kind of experiment: Cytotoxicity against human HepG2 cells assessed as cell growth inhibition incubated for 68 hrs by MTT assay. The settings on record: HepG2, 68 h. The format is functional, cell-based.

Usually IC50 stands for the concentration needed to halve the response being measured. With `C/C=C(/C)C(=O)OC[C@@]1(C)[C@H]2[C@@H]3C=C(C)[C@@H](O)[C@]4(O)[C@@H](OC(=O)/C(C)=C\C)C(C)=C[C@@]4(C3=O)[C@H](C)C[C@]21OC(C)=O`, the outcome with Streptococcus pyogenes and in the assay with Staphylococcus aureus was inactive. Also, the values for the IC50 in the assay with SK-MEL-28 and with HeLa were more than 10 µM and 9.8 µM, respectively.

Take `C/C=C(/C)C(=O)O[C@H]1C(C)=C[C@]23C(=O)[C@@H](C=C(C)[C@@H](O)[C@]12O)[C@H]1[C@@H](C[C@H]3C)C1(C)C`: the IC50 with PC-3, with SK-MEL-28, in the assay on HeLa and with HepG2 was more than 10 µM each time.

Take `C/C=C(/C)C(=O)O[C@@H]1C2[C@@H](OC(=O)c3ccccc3)[C@@H](C)C[C@]2(O)C(=O)[C@@](C)(O)[C@H]2CC(C)(C)C(=O)[C@]2(O)[C@H]2O[C@@]12COC(C)=O` (some centres not stated): the outcome in the assay on Streptococcus pyogenes and with Staphylococcus aureus was inactive. Moreover, the IC50 in the assay with PC-3, in the assay with SK-MEL-28, with HeLa and in the assay on HepG2 was more than 10 µM each time.

For the molecule `CC(=O)OC[C@@]12Cc3c(ccc(C)c3O)[C@]1(C)[C@@H](OC(C)=O)[C@]1(O)[C@H]([C@@H](OC(=O)c3ccccc3)[C@@H](C)[C@H]1OC(C)=O)[C@H]2OC(C)=O`, the IC50 in the assay with SK-MEL-28 was more than 10 µM; with HeLa it was more than 5.8 µM.

For `C=C1[C@H](O)[C@H]2[C@@H](OC(=O)c3ccccc3)[C@](C)(OC(C)=O)[C@@H](OC(=O)c3ccccc3)[C@]2(O)[C@@H](O)[C@@H](C)/C=C/C(C)(C)[C@H](O)[C@H](OC(C)=O)[C@H]1OC(C)=O`, the result in the assay with Streptococcus pyogenes and in the assay with Staphylococcus aureus was inactive. Also, the 50% inhibitory concentration (IC50) was more than 10 µM in the assay on PC-3, more than 10 µM in the assay with SK-MEL-28, 9.9 µM with HeLa and more than 10 µM with HepG2.

Take `CC(=O)OCC(=O)O[C@@H]1[C@H]2[C@@H](OC(=O)c3ccccc3)[C@@H](C)C[C@]2(O)[C@H](O)[C@]2(O)[C@H](OC(C)=O)[C@@]1(OC(C)=O)C[C@H]1C(=O)C(C)(C)C[C@@H]12`: the IC50 with PC-3, in the assay on SK-MEL-28, in the assay with HeLa and in the assay with HepG2 was more than 10 µM each time.

Take `CC(=O)OC[C@@]12Cc3c(ccc(C)c3O)[C@]1(C)[C@@H](OC(C)=O)[C@@]1(O)C[C@@](C)(OC(C)=O)[C@H](OC(=O)c3ccccc3)[C@@H]1[C@H]2OC(C)=O`: the IC50 in the assay on SK-MEL-28 and in the assay with HeLa was more than 10 µM in each case.

`C=C1C(=O)O[C@@H]2C3O[C@]3(C)CC/C=C(\C)CC[C@@H]12` (some centres not stated): the IC50 with PC-3 is more than 10 µM; in the assay on SK-MEL-28 it was 4.9 µM; in the assay on HeLa, 2.1 µM; in the assay with HepG2, 5.6 µM.
